Where two headings read alike, the source gives them in different places.
Experiments:
[1] = target: T1, MAO-B (Homo sapiens, UniProt P27338); experiment: MAO-B inhibition of prior 3-phenylcoumarins (literature data); type: biochemical; conditions: LiPE = pIC50 - QPlogPo/w, literature IC50
T1 construct: purchased Sigma-Aldrich
T1 sequence (P27338 1-520): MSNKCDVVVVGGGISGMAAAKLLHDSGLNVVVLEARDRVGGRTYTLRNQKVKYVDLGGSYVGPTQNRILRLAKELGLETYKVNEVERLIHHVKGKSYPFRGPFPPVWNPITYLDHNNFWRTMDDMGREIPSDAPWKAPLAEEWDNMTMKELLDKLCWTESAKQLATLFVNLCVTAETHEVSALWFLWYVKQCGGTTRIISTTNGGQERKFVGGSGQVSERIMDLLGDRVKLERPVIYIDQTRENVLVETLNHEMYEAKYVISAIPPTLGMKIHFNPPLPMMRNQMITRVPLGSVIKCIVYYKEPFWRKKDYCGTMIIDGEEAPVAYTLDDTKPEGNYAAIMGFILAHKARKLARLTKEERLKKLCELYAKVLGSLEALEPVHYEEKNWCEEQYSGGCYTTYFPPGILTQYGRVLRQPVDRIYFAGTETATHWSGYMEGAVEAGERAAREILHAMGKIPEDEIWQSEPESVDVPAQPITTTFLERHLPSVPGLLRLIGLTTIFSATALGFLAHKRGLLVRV

[2] = target: T1, MAO-B; conditions: cited from earlier work; for pIC50: MAO-B; for IC50: read-out: MAO-B inhibition IC50
[3] = target: T1, MAO-B; experiment: continuous spectrophotometric MAO-B inhibition assay; type: biochemical; conditions: 10 µM, 2h
Experimental: (§1) Both monoamine oxidase A (MAO-A) and B (MAO-B) protein and the reagents for the chromogenic solution of vanillic acid (4-hydroxy-3-methoxylbenzoic acid, 97% purity), 4-aminoantipyrine (reagent grade), horseradish peroxidase and the substrate tyramine hydrochloride (minimum 99% purity) as well as the potassium phosphate buffer, which was prepared using potassium phosphate dibasic trihydrate (≥99% ReagentPlus™) and potassium phosphate monobasic (minimum 98% purity, molecular biology tested), were purchased from Sigma-Aldrich (St. Louis, MO, USA) for the spectrophotometric assay.
(§2) The protocol for continuous spectrophotometric assay (Holt et al., [1997]) was followed in the activity measurements. The assay was performed in 0.2 M potassium phosphate buffer pH 7.6 on 96-well plates (Nunc™ 96F microwell plate without a lid, Nunc A/S, Roskilde, DK) in 200 μl total volume. The chromogenic solution containing 1 mM vanillic acid, 500 μM 4-aminoantipyrine and 8 U/ml horseradish peroxidase in 0.2 M potassium phosphate buffer pH 7.6 was mixed anew for each measurement. 5 mM tyramine solution was used as the substrate. In order to determine the activity of both MAO-B and MAO-A, concentration series as duplicates were prepared. The protein was combined with the chromogenic solution and incubated 30 min at 37°C. The background signal was measured using multilabel reader (Victor^TM X4, 2030 Multilabel Reader, PerkinElmer, Waltham, MA, USA) at A490 before reaching the total 200 μl volume by adding 20 μl of tyramine to final concentration of 0.5 mM on the plate. As a result, the final concentration of the chromogenic solution on the plate was 250 μM vanillic acid, 125 μM 4-aminoantipyrine and 2 U/ml horseradish peroxide. After adding the substrate, the plates were measured 300 times every 15 s using 1 s exposure time. The device was set to 37°C for the duration of the experiment.
(§3) The experiment conditions should produce absorbance change of ~0.35 (Holt et al., [1997]). […] The same wide panel of coumarin derivatives was additionally used to analyze the MAO-A inhibition at 100 μM (Table 1, Supplementary Table S1).
(§4) The measured data was then fitted on a curve using non-linear regression with the equation for log[inhibitor] vs. response. The IC50 values were therefore determined based on the curve fit. The fitted curves are shown on –log scale in Supplementary Figures S1, S2.

[4] = target: T2, MAO-A (Homo sapiens, UniProt P21397); experiment: continuous spectrophotometric MAO-A inhibition assay; type: biochemical; conditions: 100 µM, 1h
T2 construct: purchased Sigma-Aldrich
T2 sequence (P21397 1-527): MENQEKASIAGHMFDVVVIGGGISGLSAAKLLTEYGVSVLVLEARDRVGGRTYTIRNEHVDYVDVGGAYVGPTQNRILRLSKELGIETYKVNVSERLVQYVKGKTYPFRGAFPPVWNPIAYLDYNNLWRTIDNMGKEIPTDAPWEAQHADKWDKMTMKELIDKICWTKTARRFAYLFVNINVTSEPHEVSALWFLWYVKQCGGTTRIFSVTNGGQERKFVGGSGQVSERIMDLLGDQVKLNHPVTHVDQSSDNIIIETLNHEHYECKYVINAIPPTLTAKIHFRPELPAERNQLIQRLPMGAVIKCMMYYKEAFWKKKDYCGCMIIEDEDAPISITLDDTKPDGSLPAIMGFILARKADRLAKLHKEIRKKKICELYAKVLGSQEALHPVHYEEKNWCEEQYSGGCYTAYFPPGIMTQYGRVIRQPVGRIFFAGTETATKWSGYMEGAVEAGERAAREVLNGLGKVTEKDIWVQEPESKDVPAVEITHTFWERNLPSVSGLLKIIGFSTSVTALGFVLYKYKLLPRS
Experimental: as §1, §2, §3, §4

[5] = target: T3, ERα (Homo sapiens, UniProt P03372); experiment: PolarScreen ER Alpha Competitor Assay (fluorescence polarization); type: binding; conditions: for ER inhibition %: 10 μM
T3 construct: purchased Life Technologies
T3 sequence (P03372 1-595): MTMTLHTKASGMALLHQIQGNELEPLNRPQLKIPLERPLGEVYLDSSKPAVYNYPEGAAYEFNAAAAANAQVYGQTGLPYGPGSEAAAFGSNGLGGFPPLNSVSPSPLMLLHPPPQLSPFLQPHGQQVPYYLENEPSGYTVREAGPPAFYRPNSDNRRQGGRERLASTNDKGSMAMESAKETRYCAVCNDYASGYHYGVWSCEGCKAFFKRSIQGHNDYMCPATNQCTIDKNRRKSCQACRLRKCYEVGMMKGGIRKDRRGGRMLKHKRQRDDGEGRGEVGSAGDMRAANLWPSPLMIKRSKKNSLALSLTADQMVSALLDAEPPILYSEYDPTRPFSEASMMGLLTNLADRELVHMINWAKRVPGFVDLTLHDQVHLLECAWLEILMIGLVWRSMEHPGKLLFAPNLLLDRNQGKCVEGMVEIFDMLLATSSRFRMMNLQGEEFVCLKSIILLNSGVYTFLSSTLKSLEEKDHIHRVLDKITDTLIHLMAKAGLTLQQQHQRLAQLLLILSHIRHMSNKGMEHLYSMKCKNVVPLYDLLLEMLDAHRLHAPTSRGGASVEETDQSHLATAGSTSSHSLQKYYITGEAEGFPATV
Experimental: The pIC50 values for the derivatives (Table 1, Supplementary Table S1) were measured with green PolarScreen™ ER Alpha Competitor Assay (Life Technologies, CA, The United States of America) kit, following the manufacturer protocol as previously described (Niinivehmas et al., [2016]). The final concentration of the compounds ranged from 0.0007 to 10 000 nM in the dilution series which were performed as duplicates. The molecules were combined with 25 nM ERα and 4.5 nM fluormone in the assay buffer and placed on black low volume 384-well assay plate with NBS surface (Corning, NY, The United States of America). After mixing the assay plate, it was incubated for 2 h in RT. The fluorescence polarization was measured using excitation wave length 485 and emission wave length 535 with bandwidths of 25/20 nm on a 2104 EnVision® Multilabel Plate Reader which had EnVision Workstation version 1.7 (PerkinElmer, MA, The United States of America).

[6] = target: T4, recombinant human HSD1 (Homo sapiens, UniProt P14061); experiment: HSD1 inhibition by HPLC with tritium labeled estrone/estradiol; type: biochemical; conditions: 1 μM
T4 construct: made in house; host or cells: Sf9 insect cells
T4 sequence (P14061 1-328): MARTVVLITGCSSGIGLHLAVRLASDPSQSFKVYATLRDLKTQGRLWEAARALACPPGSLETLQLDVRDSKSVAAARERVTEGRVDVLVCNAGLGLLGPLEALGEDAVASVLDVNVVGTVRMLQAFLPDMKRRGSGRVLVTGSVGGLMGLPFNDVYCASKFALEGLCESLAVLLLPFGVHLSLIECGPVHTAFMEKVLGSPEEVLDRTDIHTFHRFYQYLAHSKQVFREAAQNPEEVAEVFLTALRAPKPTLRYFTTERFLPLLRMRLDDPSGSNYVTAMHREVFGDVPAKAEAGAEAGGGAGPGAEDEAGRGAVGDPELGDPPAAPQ

[7] = from literature IC50 ref Matos et al., 2011b
[8] = prior 3-phenylcoumarins ref Matos et al., 2011b
[9] = from literature IC50 ref Matos et al., 2011a
[10] = prior 3-phenylcoumarins ref Matos et al., 2011a
[11] = from literature IC50 ref Matos et al., 2010
[12] = prior 3-phenylcoumarins ref Matos et al., 2010

COc1ccc(-c2c(O)c3ccccc3oc2=O)cc1Cl [CHEMBL1934675]
LiPE [1]: 1.85

O=c1oc2c(O)cc(Br)cc2cc1-c1ccc(O)cc1 [CHEMBL1777849]
LiPE [1]: 2.46
pIC50 [2, 7]: 4.77
IC50 [2, 8]: 16900 nM

CC(=O)COc1cccc(-c2cc3cc(C)ccc3oc2=O)c1 [CHEMBL1835328]
LiPE [1]: 3.80
pIC50 [2, 9]: 6.74
IC50 [2, 10]: 180 nM

Cc1ccc(-c2cc3cc(OC4CCCC4)ccc3oc2=O)cc1 [CHEMBL1835227]
LiPE [1]: 0.14
pIC50 [2, 9]: 4.84
IC50 [2, 10]: 14500 nM

COc1ccc2oc(=O)c(-c3cccc(C)c3)cc2c1 [CHEMBL1835223]
LiPE [1]: 4.30
pIC50 [2, 9]: 7.77
IC50 [2, 10]: 17.1 nM

Cc1ccc2oc(=O)c(-c3ccccc3)cc2c1 [CHEMBL1783714]
LiPE [1]: 3.08
pIC50 ([2]; from literature IC50 ref Matos et al., 2009, 2011a, Viña et al., 2012b): 6.55
IC50 ([2]; prior 3-phenylcoumarins ref Matos et al., 2009, 2011a, Viña et al., 2012b): 284 nM

Cc1ccc2oc(=O)c(-c3ccccc3Br)cc2c1 [CHEMBL1221929]
LiPE [1]: 1.46
pIC50 [2, 11]: 5.37
IC50 [2, 12]: 4300 nM

O=c1oc2c(O)cc(Br)cc2cc1-c1ccccc1 [CHEMBL1777847]
LiPE [1]: 1.45
pIC50 [2, 7]: 4.51
IC50 [2, 8]: 30900 nM

Cc1cc(Br)c2oc(=O)c(-c3ccccc3)cc2c1 [CHEMBL1221930]
LiPE [1]: 0.95
pIC50 [2, 11]: 4.96
IC50 [2, 12]: 11000 nM

COc1ccc(-c2cc3cc(Br)cc(OC)c3oc2=O)cc1 [CHEMBL1777845]
LiPE [1]: 5.09
pIC50 [2, 7]: 8.87
IC50 [2, 8]: 1.35 nM

Cc1ccc2oc(=O)c(-c3ccccc3O)cc2c1 [CHEMBL1835327]
LiPE [1]: 4.08
pIC50 [2, 9]: 6.92
IC50 [2, 10]: 120 nM

COc1cccc(-c2cc3cc(C)ccc3oc2=O)c1 [CHEMBL570731]
LiPE [1]: 5.64
pIC50 [2, 9]: 9.10
IC50 [2, 10]: 0.8 nM

Cc1cccc(-c2cc3cc(C)ccc3oc2=O)c1 [CHEMBL1835229]
LiPE [1]: 4.09
pIC50 [2, 9]: 7.82
IC50 [2, 10]: 15 nM

Cc1ccc2oc(=O)c(-c3ccc(O)cc3)cc2c1 [CHEMBL577099]
LiPE [1]: 4.06

O=c1oc2c(O)cccc2cc1-c1ccc(O)cc1 [derivative 44]
MAO-B inhibition % [3]: 22.52%
MAO-A inhibition % [4]: 22.39%
ER activity (in words) [5]: prominent
ER inhibition % [5]: 96.18%

O=c1oc2c(Cl)cc(Cl)cc2cc1-c1ccc(F)cc1 [derivative 49]
MAO-B inhibition % [3]: 10.23%
MAO-A inhibition % [4]: 0.00%
ER inhibition % [5]: 0.66%
HSD1 inhibition % [6]: 1.30%

O=c1oc2cc(O)cc(O)c2cc1-c1ccc(O)cc1 [derivative 45]
MAO-B inhibition % [3]: 21.38%
MAO-A inhibition % [4]: 43.38%
ER inhibition % [5]: 0.13%

O=c1oc2c(O)cccc2cc1-c1cccc(O)c1 [derivative 43]
MAO-B inhibition % [3]: 22.93%
MAO-A inhibition % [4]: 56.76%
ER inhibition % [5]: 0.00%

O=c1oc2cc(O)ccc2cc1-c1cccc(O)c1 [derivative 40]
MAO-B inhibition % [3]: 25.74%
MAO-A inhibition % [4]: 0.00%
ER activity (in words) [5]: prominent
ER inhibition % [5]: 18.58%
